Experimental data reported in patent US6906198B1, “Antipicornaviral compounds, their preparation and use” (Agouron Pharmaceuticals, Inc., priority 1998, dated 2005).
Where two headings read alike, the source gives them in different places.

Legend:
[1] = Cytotoxicity in mock-infected H1-HeLa cells (antirhinoviral assay, XTT); type: cell-based; conditions: human, 50% cytotoxic dose
Procedure: (§1) H1-HeLa cells were infected with HRV-14 at a multiplicity of infection (m.o.i.) of 0.13 (virus particles/cell) or mock-infected with medium only. Infected or mock-infected cells were resuspended at 8×10^5 cells per mL, and incubated with appropriate concentrations of the compounds to be tested. Two days later, XTT/PMS was added to test plates and the amount of formazan produced was quantified spectrophotometrically at 450/650 nm. The EC50 value was calculated as the concentration of compound that increased the percentage of formazan production in compound-treated, virus-infected cells to 50% of that produced by compound-free, mock-infected cells. The 50% cytotoxic dose (CC50) was calculated as the concentration of compound that decreased the percentage of formazan produced in compound-treated, mock-infected cells to 50% of that produced by compound-free, mock-infected cells. The therapeutic index (TI) was calculated by dividing the CC50 value by the EC50 value.
(§2) All strains of human rhinovirus (HRV) for use in this assay were purchased from American Type Culture Collection (ATCC), except for HRV serotype-14 (produced from the infectious cDNA clone constructed by Dr. Robert Rueckert, Institute for Molecular Virology, University of Wisconsin, Madison, Wis.). HRV stocks were propagated and viral assays were performed in H1-HeLa cells (ATCC). Cells were grown in minimal essential medium with 10% fetal bovine serum, available from Life Technologies (Gaithersburg, Md.).

HRV serotype 12 = assay: Antirhinoviral H1-HeLa cell culture assay (XTT), HRV-12; type: cell-based; conditions: Human rhinovirus sp., H1-HeLa cells
Procedure: (§3) Antirhinoviral H1-HeLa Cell Culture Assay
(§4) In this cell protection assay, the ability of compounds to protect cells against HRV infection was measured by the XTT dye reduction method, which is described in Weislow et al., J. Natl. Cancer Inst. 1989, vol. 81, 577-586.
as §1, with “value. […]” for “value.”

HRV serotype 25 = assay: Antirhinoviral H1-HeLa cell culture assay (XTT), HRV-25; type: cell-based; conditions: Human rhinovirus sp., H1-HeLa cells
Procedure: as §3, §4
as §1, with “value. […]” for “value.”

HRV serotype 30 = assay: Antirhinoviral H1-HeLa cell culture assay (XTT), HRV-30; type: cell-based; conditions: Human rhinovirus sp., H1-HeLa cells
Procedure: as §3, §4
as §1, with “value. […]” for “value.”

HRV serotype 38 = assay: Antirhinoviral H1-HeLa cell culture assay (XTT), HRV-38; type: cell-based; conditions: Human rhinovirus sp., H1-HeLa cells
Procedure: as §3, §4
as §1, with “value. […]” for “value.”

HRV serotype 87 = assay: Antirhinoviral H1-HeLa cell culture assay (XTT), HRV-87; type: cell-based; conditions: Human rhinovirus sp., H1-HeLa cells
Procedure: as §3, §4
as §1, with “value. […]” for “value.”

HRV-14 = assay: Antirhinoviral H1-HeLa cell culture assay (XTT), HRV-14; type: cell-based, human rhinovirus
Procedure: as §3, §4, §1, §2
The compounds were tested against control compounds WIN 51711, WIN 52084, and WIN 54954 (obtained from Sterling-Winthrop Pharmaceuticals), Pirodavir (obtained from Janssen Pharmaceuticals), and Pleconaril (prepared according to the method described in Diana et al., J. Med. Chem 1995, vol. 38, 1355). Antiviral data obtained for the test compounds are shown in Tables 1 and 3, where all data are for HRV serotype-14 unless otherwise noted in parentheses.

HRV serotype 1A = assay: Antirhinoviral H1-HeLa cell culture assay (XTT), HRV-1A; type: cell-based, human rhinovirus; conditions: H1-HeLa cells
Procedure: as §3, §4, §1, §2
(§5) The compounds were tested against control compounds WIN 51711, WIN 52084, and WIN 54954 (obtained from Sterling-Winthrop Pharmaceuticals), Pirodavir (obtained from Janssen Pharmaceuticals), and Pleconaril (prepared according to the method described in Diana et al., J. Med. Chem 1995, vol. 38, 1355). […]

HRV serotype 10 = assay: Antirhinoviral H1-HeLa cell culture assay (XTT), HRV-10; type: cell-based, human rhinovirus; conditions: H1-HeLa cells
Procedure: as §3, §4, §1, §2, §5

[2] = Cytotoxicity in uninfected H1-HeLa cells (anticoxsackieviral assay, XTT); type: cell-based; conditions: human; 50% cytotoxic dose, uninfected H1-HeLa cells (Table 4)
Procedure: Coxsackievirus types A-21 (CAV-21) and B3 (CVB-3) were purchased from American Type Culture Collection (ATCC, Rockville, Md.). Virus stocks were propagated and antiviral assays were performed in H1-HeLa cells (ATCC). Cells were grown in minimal essential medium with 10% fetal bovine serum (Life Technologies, Gaithersburg, Md.).
The ability of compounds to protect cells against either CAV-21 or CVB-3 infection was measured by the XTT dye reduction method. This method is described in Weislow et al., J. Natl. Cancer Inst. 1989, vol. 81, 577-586. H1-HeLa cells were infected with CAV-21 or CVB-3 at a multiplicity of infection (m.o.i.) of 0.025 or 0.075, respectively, or mock-infected with medium only. H1-HeLa cells were plated at 4×10^4 cells per well in a 96-well plate and incubated with appropriate concentrations of the test compound. One day (CVB-3) or two days (CAV-21) later, XTT/PMS was added to test plates and the amount of formazan produced was quantified spectrophotometrically at 450/650 nm. The EC50 was calculated as the concentration of compound that increased the formazan production in compound-treated, virus-infected cells to 50% of that produced by compound-free, uninfected cells. The 50% cytotoxic dose (CC50) was calculated as the concentration of compound that decreased formazan production in compound-treated, uninfected cells to 50% of that produced in compound-free, uninfected cells. The therapeutic index (TI) was calculated by dividing the CC50 by the EC50.

[3] = Cytotoxicity in uninfected MRC-5 cells (anti-echoviral/-enteroviral assay, XTT); type: cell-based; conditions: human, 50% cytotoxic dose
Procedure: Echovirus type 11 (EV 11) and enterovirus type 70 (EV 70) were purchased from ATCC (Rockville, Md.). Virus stocks were propagated and antiviral assays were performed in MRC-5 cells (ATCC). Cells were grown in minimal essential medium with 10% fetal bovine serum (Life Technologies, Gaithersburg, Md.).
The ability of compounds to protect cells against either EV 11 or EV 70 infection was measured by the XTT dye reduction method (Weislow et al., J. Natl. Cancer Inst. 1989, vol. 81, 577-586). MRC-5 cells were infected with EV 11 or EV 70 at an m.o.i. of 0.003 or 0.004, respectively, or mock-infected with medium only. Infected or uninfected cells were added at 1×10^4 cells per well and incubated with appropriate concentrations of compound. Four days later, XTT/PMS was added to test plates, and the amount of formazan produced was quantified spectrophotometrically at 450/650 nm. The EC50 was calculated as the concentration of compound that increased the formazan production in compound-treated, virus-infected cells to 50% of that produced by compound-free, uninfected cells. The 50% cytotoxic dose (CC50) was calculated as the concentration of compound that decreased formazan production in compound-treated, uninfected cells to 50% of that produced in compound-free, uninfected cells. The therapeutic index (TI) was calculated by dividing the CC50 by the EC50.

H1-HeLa cells = assay: Cytotoxicity in mock-infected H1-HeLa cells (antirhinoviral assay, XTT); type: cell-based; conditions: 50% cytotoxic dose
Procedure: as §1, §2

[4] = HRV serotype-14, H1-HeLa cells (Table 1), read-out: Cell Protection EC50
[5] = HRV serotype-14, H1-HeLa cells (Table 3), read-out: EC50

SMILES | EC50 (HRV-14; [4]) [µM] | EC50 (HRV-14; [5]) [µM] | CC50 at 2 days [1] [µM] | also measured
CCOC(=O)/C=C/[C@H](CN1CCNC1=O)NC(=O)[C@H](Cc1ccccc1)NC(=O)[C@H](CC(C)C)NC(=O)OCc1ccccc1 |  |  |  | melting point: 161 to 164 °C
CCOC(=O)/C=C/[C@H](CCC(N)=O)NC(=O)[C@H](Cc1ccccc1)NC(=O)[C@H](CC(C)C)NC(=O)c1cc(C)on1 [(A-1), Ethyl-3-((5′-Methylisoxazole-3′-carbonyl)-L-Leu-L-Phe-L-Gln)-E-Propenoate] |  |  | > 100 | melting point: 223 to 225 °C
CCOC(=O)/C=C/[C@H](C[C@@H]1CCNC1=O)NC(=O)[C@H](Cc1ccc(F)cc1)NC(=O)[C@@H](NC(=O)c1cc(C)on1)C(C)(C)C [(A-7), Ethyl-3-{(5′-Methylisoxazole-3′-carbonyl)-L-α-(t-Butyl-Gly)-L-(4-F-Phe)-L-((S)-Pyrrol-Ala)}-E-Propenoate] |  |  | > 10 | EC50 (HRV serotype 12): 0.07 µM; EC50 (HRV serotype 25): 0.2 µM; EC50 (HRV serotype 30): 0.09 µM; EC50 (HRV serotype 38): 0.17 µM; EC50 (HRV serotype 87): 0.59 µM
CCOC(=O)/C=C/[C@H](CCC(N)=O)NC(=O)[C@H](Cc1ccccc1)N(C)C(=O)[C@H](CC(C)C)NC(=O)c1cc(C)on1 [(A-10), Ethyl-3-((5′-Methylisoxazole-3′-carbonyl)-L-Leu-NCH3-L-Phe-L-Gln}-E-Propenoate] |  |  | > 100 | EC50 (HRV-14; Rhinovirus B, HRV14, HRV serotype-14, H1-HeLa cells (Table 1), read-out: Cell Protection EC50): 0.14 µM; EC50 (HRV-14; Rhinovirus B, HRV14, HRV serotype-14, H1-HeLa cells (Table 3), read-out: EC50): 0.14 µM
CCOC(=O)/C=C/[C@H](CCC(N)=O)NC(=O)[C@@H](CC(=O)[C@@H](NC(=O)c1cc(C)on1)C(C)C)Cc1ccc(F)cc1 [(B-1), Ethyl-3-{(5′-Methylisoxazole-3′-carbonyl)-L-ValΨ(COCH2)-L-(4-F-Phe)-L-Gln}-E-Propenoate] |  |  | > 100 | melting point: 220 °C (dec.)
CCOC(=O)/C=C/[C@H](C[C@@H]1CCNC1=O)NC(=O)[C@@H](CC(=O)[C@@H](NC(=O)c1cc(C)on1)C(C)C)Cc1ccc(F)cc1 [(B-2), Ethyl-3-{(5′-Methylisoxazole-3′-carbonyl)-L-ValΨ(COCH2)-L-(4-F-Phe)-L-((S)-Pyrrol-Ala)}-E-Propenoate] |  |  | > 100 | CC50 [2]: > 100 µM; CC50 at 4 days [3]: > 100 µM
CCOC(=O)/C=C/[C@H](C[C@@H]1CCCNC1=O)NC(=O)[C@@H](CC(=O)[C@@H](NC(=O)c1cc(C)on1)C(C)C)Cc1ccc(F)cc1 [(B-4), Ethyl-3-{(5′-Methylisoxazole-3′-carbonyl)-L-ValΨ(COCH2)-L-(4-F-Phe)-L-((S)-Piper-Ala)}-E-Propenoate] |  |  | > 100 | 
CCOC(=O)/C=C/[C@H](CCC(N)=O)NC(=O)[C@H](Cc1ccc(F)cc1)OC(=O)[C@@H](NC(=O)c1cc(C)on1)C(C)C [(C-1), Ethyl-3-{(5′-Methylisoxazole-3′-carbonyl)-L-Val-O-L-(4-F-Phe)-L-Gln}-E-Propenoate] |  |  | > 10 | 
CCOC(=O)/C=C/[C@H](C[C@@H]1CCNC1=O)NC(=O)[C@H](Cc1ccc(F)cc1)OC(=O)[C@@H](NC(=O)c1cc(C)on1)C(C)C [(C-2), Ethyl-3-{(5′-Methylisoxazole-3′-carbonyl)-L-Val-O-L-(4-F-Phe)-L-((S)-Pyrrol-Ala)}-E-Propenoate] |  |  | > 10 | 
CC(C)C[C@H](NC(=O)OCc1ccccc1)C(=O)N[C@@H](Cc1ccccc1)C(=O)N[C@H](/C=C/c1ccno1)CCC(N)=O [Comparison Compound #1, 5-(3′-(Cbz-L-Leu-L-Phe-L-Gln)-E-Propene)-Isoxazole, reference compound] |  |  | > 320 | 
CCOC(=O)/C=C/[C@H](CCC(N)=O)NC(=O)[C@H](Cc1ccccc1)NC(=O)[C@H](CC(C)C)NC(=O)OCc1ccccc1 [Comparison Compound #2, Ethyl-3-(Cbz-L-Leu-L-Phe-L-Gln)-E-Propenoate] |  |  | > 320 | melting point: 219 to 221 °C
CCOC(=O)c1ccc(OCCC2CCN(c3ccc(C)nn3)CC2)cc1 [Pirodavir, reference compound] |  |  | > 10 | CC50 [2]: > 100 µM; CC50 at 4 days [3]: > 10 µM
Cc1cc(CCCOc2c(C)cc(-c3noc(C(F)(F)F)n3)cc2C)on1 [Pleconaril, reference compound] |  |  | > 10 | CC50 [2]: > 10 µM; CC50 at 4 days [3]: > 10 µM
Cc1cc(CCCCCCCOc2ccc(C3=NCCO3)cc2)on1 [WIN 51711, reference compound] |  | 0.78 |  | CC50 (H1-HeLa cells): > 60 µM
Cc1cc(CCCCCCCOc2ccc(C3=N[C@@H](C)CO3)cc2)on1 [WIN 52084, reference compound] |  | 0.07 |  | CC50 (H1-HeLa cells): > 10 µM

Now from value to compound, other results behind:

EC50 (HRV-14; [4]) [µM] | EC50 (HRV-14; [5]) [µM] | SMILES | CC50 at 2 days [1] [µM] | also measured
0.48 | 0.48 | CCOC(=O)/C=C/[C@H](CCC(N)=O)NC(=O)[C@H](Cc1ccccc1)NC(=O)[C@@H](NC(=O)c1cccs1)C(C)(C)C [(A-14)] |  | 
0.22 | 0.22 | CCOC(=O)/C=C/[C@H](CCC(N)=O)NC(=O)[C@H](Cc1ccc(C)cc1)NC(=O)[C@@H](NC(=O)C1SCCS1)C(C)(C)C [(A-15)] |  | EC50 (HRV serotype 1A): 7.1 µM; EC50 (HRV serotype 10): 2.7 µM
0.45 | 0.45 | CCOC(=O)/C=C/[C@H](CCC(N)=O)NC(=O)[C@H](Cc1ccc(C)cc1)NC(=O)[C@@H](NC(=O)c1ccc[nH]1)C(C)(C)C [(A-16)] |  | EC50 (HRV serotype 1A): 4.8 µM; EC50 (HRV serotype 10): 4.5 µM
1.5 | 1.5 | CC(C)[C@H](NC(=O)C1SCCS1)C(=O)N[C@@H](Cc1ccc(F)cc1)C(=O)N[C@H](/C=C/C(=O)OCc1cccnc1)CCC(N)=O [(A-18)] |  | 
25.1 | 25.1 | CCOC(=O)/C=C/[C@H](CCC(N)=O)NC(=O)[C@H](Cc1ccccc1)NC(=O)[C@H](CC(C)C)NC(=O)[C@@H]1C=CCN1 [(A-19)] |  | 
12.6 | 12.6 | CCOC(=O)/C=C/[C@H](CCC(N)=O)NC(=O)[C@H](Cc1ccccc1)NC(=O)[C@H](CC(C)C)NC(=O)c1cc(C)oc1C [(A-20)] |  | 
2.5 | 2.5 | CCOC(=O)/C=C/[C@H](CCC(N)=O)NC(=O)[C@H](Cc1ccccc1)NC(=O)[C@H](CC(C)C)NC(=O)c1nc(C)c[nH]1 [(A-21)] |  | 
